Assay results from patent US20140296216A1, “PYRIMIDO[4,5-D]PYRIMIDINYL COMPOUNDS, PHARMACEUTICAL COMPOSITIONS AND USES THEREOF” (GUANGZHOU INSTITUTE OF BIOMEDICINE AND HEALTH, CHINESE …, priority 2011, published 2014).

Tests used:
[1] = biological target: EGFRL858R + T790M (Homo sapiens, UniProt P00533, L858R/T790M); assay: In vitro enzymatic activity assay (Z'-LYTE), EGFR L858R + T790M; format: biochemical; details: Z'-LYTE FRET peptide assay; read-out: EGFRL858R + T790M kinase activity (IC50)
Source text: (§1) In vitro enzymatic activity assay: using Z′-LYTE™ technology (detect fluorescence, coupled-enzyme format, based on the differential sensitivity of phosphorylated and non-phosphorylated peptides to proteolytic cleavage), based on FRET, using Z′ LYTE™ FRET peptide substrate, detect the activity of compounds against enzymatic. […] After one hour, site specific protease which can recognize and cleaves non-phosphorylated FRET-peptide. After another hour, using an excitation wavelength of 400 nm excites, then detect the […] at 445 nm and 520 nm.

[2] = biological target: EGFRL861Q (Homo sapiens, UniProt P00533, L861Q); assay: In vitro enzymatic activity assay (Z'-LYTE), EGFR L861Q; format: biochemical; details: Z'-LYTE FRET peptide assay; read-out: EGFRL861Q kinase activity (IC50)
Source text: as §1

[3] = system: H1975 (lung cancer cells, EGFR L858R&T790M); assay: Cell proliferation by MTT, H1975; format: cell-based; details: Homo sapiens, NCI-H1975, read-out: H1975 50% inhibitory concentration (IC50), 72 h
[4] = system: NCI-H820 (lung cancer cells); assay: Cell proliferation by MTT, NCI-H820; format: cell-based; details: NCI-H820, read-out: NCI-H820 50% inhibitory concentration (IC50), 72 h
[5] = system: A431 (Human epidermal carcinoma, EGFR high expression); assay: Cell proliferation by MTT, A431; format: cell-based; details: A-431, read-out: A431 50% inhibitory concentration (IC50), 72 h
[6] = system: HCC827 (lung cancer cells, EGFR E746-A750 deletion); assay: Cell proliferation by MTT, HCC827; format: cell-based; details: Homo sapiens, HCC827, read-out: HCC827 50% inhibitory concentration (IC50), 72 h
[7] = biological target: EGFRL858R (Homo sapiens, UniProt P00533, L858R); assay: In vitro enzymatic activity assay (Z'-LYTE), EGFR L858R; format: biochemical; details: Z'-LYTE FRET peptide assay; read-out: EGFRL858R kinase activity (IC50)
Source text: as §1

[8] = biological target: EGFRWT (Homo sapiens, UniProt P00533); assay: In vitro enzymatic activity assay (Z'-LYTE), wild type EGFR; format: biochemical; details: Z'-LYTE FRET peptide assay; read-out: EGFRWT kinase activity (IC50)
Source text: as §1

[9] = biological target: T1, EGFR T790M kinase (Homo sapiens, UniProt P00533, T790M); assay: In vitro enzymatic activity assay (Z'-LYTE), EGFR T790M; format: biochemical; details: Z'-LYTE FRET peptide assay; read-out: EGFRT790M kinase activity (IC50)
T1 construct: purchased invitrogen PV4803
Source text: as §1

T1 sequence (P00533 25-1210 T790M): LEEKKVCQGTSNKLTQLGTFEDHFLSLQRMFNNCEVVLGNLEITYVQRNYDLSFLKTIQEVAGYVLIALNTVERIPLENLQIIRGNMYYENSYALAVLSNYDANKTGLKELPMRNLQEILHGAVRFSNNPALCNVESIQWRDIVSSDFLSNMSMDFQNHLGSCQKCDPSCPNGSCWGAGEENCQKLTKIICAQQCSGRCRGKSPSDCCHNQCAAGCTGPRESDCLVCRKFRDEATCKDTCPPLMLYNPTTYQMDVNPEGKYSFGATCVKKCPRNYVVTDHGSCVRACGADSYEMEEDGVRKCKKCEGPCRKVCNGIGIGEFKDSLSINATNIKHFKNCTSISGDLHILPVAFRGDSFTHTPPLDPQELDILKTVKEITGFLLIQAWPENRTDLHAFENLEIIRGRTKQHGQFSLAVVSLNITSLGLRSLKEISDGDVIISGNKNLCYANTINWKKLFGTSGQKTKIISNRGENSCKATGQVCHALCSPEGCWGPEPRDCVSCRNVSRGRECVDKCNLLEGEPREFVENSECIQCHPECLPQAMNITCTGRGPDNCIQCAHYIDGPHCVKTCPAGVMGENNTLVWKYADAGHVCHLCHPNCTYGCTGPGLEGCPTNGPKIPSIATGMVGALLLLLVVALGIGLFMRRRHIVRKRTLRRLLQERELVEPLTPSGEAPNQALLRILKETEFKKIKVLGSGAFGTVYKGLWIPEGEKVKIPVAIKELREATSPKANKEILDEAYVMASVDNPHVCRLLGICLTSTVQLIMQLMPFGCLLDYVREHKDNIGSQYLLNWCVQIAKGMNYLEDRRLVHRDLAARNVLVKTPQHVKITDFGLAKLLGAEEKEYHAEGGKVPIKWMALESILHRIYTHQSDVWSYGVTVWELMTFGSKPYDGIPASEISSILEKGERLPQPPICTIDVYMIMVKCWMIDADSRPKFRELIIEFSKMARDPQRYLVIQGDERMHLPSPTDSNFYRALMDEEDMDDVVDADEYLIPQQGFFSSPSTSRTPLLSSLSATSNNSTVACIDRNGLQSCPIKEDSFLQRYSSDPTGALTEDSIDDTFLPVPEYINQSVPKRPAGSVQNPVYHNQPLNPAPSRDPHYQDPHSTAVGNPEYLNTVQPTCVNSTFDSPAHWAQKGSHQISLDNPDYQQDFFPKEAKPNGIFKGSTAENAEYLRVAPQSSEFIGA
Sequence of EGFRL858R (P00533 25-1210 L858R): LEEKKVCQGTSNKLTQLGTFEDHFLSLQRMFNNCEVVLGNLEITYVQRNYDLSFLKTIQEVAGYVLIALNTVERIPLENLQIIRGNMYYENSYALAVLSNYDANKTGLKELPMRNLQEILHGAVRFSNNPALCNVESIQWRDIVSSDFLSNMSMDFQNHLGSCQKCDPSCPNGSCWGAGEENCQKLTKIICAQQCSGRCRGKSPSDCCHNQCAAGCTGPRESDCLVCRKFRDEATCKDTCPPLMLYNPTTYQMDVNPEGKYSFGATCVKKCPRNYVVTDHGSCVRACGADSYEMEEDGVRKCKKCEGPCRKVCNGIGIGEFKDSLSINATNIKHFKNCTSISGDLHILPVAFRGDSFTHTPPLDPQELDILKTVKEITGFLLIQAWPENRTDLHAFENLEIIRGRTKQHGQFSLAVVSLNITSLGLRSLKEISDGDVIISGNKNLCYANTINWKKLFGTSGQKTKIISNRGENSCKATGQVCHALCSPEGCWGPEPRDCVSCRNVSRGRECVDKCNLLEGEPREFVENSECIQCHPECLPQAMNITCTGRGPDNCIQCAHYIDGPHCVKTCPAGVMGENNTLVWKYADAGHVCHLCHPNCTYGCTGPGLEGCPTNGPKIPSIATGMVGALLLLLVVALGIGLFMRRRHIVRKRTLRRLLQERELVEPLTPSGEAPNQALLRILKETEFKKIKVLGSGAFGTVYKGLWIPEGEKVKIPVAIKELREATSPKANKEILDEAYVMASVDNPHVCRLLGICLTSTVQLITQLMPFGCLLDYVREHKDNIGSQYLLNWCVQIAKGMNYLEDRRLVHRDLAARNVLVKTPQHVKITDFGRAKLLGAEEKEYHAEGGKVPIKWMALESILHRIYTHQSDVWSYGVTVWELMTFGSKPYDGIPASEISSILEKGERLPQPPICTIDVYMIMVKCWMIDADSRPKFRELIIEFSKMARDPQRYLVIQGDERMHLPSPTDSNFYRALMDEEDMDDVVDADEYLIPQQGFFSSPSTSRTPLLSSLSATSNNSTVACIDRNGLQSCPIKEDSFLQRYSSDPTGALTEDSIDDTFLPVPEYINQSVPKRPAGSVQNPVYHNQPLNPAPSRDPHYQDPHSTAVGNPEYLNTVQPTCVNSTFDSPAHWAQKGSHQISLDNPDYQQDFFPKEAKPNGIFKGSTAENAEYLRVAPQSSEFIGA
Sequence of EGFRL858R + T790M (P00533 25-1210 T790M/L858R): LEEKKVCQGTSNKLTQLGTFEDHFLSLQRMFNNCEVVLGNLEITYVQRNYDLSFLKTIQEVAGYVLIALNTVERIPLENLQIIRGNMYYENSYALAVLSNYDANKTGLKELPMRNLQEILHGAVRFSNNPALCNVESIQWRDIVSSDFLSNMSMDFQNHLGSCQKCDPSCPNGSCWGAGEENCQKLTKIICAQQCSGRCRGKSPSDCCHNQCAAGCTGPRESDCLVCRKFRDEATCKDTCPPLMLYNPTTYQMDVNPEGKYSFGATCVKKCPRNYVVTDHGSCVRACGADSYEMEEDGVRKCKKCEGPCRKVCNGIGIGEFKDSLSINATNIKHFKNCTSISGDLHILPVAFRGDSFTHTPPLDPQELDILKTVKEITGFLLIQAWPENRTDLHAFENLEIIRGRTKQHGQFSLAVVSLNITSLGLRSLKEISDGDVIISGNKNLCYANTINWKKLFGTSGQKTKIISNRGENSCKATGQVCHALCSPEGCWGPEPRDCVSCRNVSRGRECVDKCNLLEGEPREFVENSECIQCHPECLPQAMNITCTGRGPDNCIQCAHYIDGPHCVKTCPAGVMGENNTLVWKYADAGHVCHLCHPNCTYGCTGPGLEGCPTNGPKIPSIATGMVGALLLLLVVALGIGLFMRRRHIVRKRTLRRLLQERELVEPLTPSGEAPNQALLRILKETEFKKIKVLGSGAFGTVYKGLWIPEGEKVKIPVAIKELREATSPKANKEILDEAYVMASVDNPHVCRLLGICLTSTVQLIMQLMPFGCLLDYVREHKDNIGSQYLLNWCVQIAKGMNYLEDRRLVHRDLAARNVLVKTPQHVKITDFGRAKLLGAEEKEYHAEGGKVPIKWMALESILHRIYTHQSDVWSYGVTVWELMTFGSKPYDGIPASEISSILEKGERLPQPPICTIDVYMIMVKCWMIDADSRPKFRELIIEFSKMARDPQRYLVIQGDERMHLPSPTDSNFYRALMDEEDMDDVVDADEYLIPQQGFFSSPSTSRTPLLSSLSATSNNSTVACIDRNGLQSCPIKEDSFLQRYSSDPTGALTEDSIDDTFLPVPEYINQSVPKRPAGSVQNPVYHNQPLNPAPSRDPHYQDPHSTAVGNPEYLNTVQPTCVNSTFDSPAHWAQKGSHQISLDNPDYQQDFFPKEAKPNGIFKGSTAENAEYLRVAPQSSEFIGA
Sequence of EGFRWT (P00533 25-1210): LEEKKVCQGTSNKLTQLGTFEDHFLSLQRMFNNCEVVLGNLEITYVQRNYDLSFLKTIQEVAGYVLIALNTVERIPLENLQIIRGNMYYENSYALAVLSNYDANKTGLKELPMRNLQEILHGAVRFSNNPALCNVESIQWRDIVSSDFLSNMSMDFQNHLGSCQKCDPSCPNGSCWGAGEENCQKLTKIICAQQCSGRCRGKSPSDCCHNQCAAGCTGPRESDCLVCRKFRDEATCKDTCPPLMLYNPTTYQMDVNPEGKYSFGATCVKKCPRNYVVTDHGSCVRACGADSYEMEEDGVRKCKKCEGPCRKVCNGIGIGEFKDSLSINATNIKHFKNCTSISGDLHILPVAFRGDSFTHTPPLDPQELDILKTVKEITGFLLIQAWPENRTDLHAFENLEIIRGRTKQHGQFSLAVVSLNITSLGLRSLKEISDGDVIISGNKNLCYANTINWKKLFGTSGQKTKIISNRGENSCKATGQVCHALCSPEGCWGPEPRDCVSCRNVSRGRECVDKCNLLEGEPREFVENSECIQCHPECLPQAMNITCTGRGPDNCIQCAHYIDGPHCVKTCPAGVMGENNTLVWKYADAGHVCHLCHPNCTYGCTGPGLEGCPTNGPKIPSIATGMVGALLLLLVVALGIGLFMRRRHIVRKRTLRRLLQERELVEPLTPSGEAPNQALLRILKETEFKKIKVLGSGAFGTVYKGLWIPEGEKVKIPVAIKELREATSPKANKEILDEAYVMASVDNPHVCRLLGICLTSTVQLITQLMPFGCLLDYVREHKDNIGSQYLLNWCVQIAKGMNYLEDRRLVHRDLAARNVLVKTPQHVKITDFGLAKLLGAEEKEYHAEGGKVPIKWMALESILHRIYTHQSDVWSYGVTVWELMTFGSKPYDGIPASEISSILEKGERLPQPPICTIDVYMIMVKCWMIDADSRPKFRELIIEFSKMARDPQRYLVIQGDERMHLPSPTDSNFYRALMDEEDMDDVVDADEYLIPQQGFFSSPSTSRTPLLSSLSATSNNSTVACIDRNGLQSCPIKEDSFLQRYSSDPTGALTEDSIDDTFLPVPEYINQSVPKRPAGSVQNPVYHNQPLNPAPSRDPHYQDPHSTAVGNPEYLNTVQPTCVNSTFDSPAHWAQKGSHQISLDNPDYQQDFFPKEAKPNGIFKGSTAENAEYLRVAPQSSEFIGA

| SMILES | IC50 [1] | IC50 [2] | IC50 [3] | IC50 [4] | IC50 [5] | IC50 [6] | IC50 [7] | IC50 [8] | IC50 [9] |
| --- | --- | --- | --- | --- | --- | --- | --- | --- | --- |
| C=CC(=O)Nc1cccc(N2C(=O)N(C)Cc3cnc(Nc4ccc(N(C)C)cc4OC)nc32)c1 [C-EGF23, N-(3-(7-(4-(dimethylamino)-2-methoxyphenylamino)-3-methyl-2-oxo-3,4-dihydropyrimido[4,5-d]pyrimidin-1(2H)-yl)phenyl)acrylamide] | 0.01 to 0.1 µM | ≤ 0.01 µM | 3.86 µM | > 100 µM | 28.2 µM | 0.616 µM | ≤ 0.01 µM | ≤ 0.01 µM | 0.01 to 0.1 µM |
| C=CC(=O)Nc1cccc(N2C(=O)N(C)Cc3cnc(N4CCN(C)CC4)nc32)c1 [C-EGF19, N-(3-(3-methyl-7-(4-methylpiperazin-1-yl)-2-oxo-3,4-dihydropyrimido[4,5-d]pyrimidin-1(2H)-yl)phenyl)acrylamide] | 1 to 10 µM | 0.1 to 1 µM | 12.1 µM | 95.7 µM | > 100 µM | > 100 µM | ≥ 10 µM | ≥ 10 µM | ≥ 10 µM |
| C=CC(=O)Nc1cccc(N2C(=O)N(C)Cc3cnc(Nc4ccc(N5CCCCC5)cc4)nc32)c1 [Compound X002, N-(3-(3-methyl-2-oxo-7-(4-(piperidin-1-yl)phenylamino)-3,4-dihydropyrimido[4,5-d]pyrimidin-1(2H)-yl)phenyl)acrylamide] | ≤ 0.01 µM | ≤ 0.01 µM | 0.42 µM | > 100 µM | 8.03 µM | 0.154 µM | ≤ 0.01 µM | ≤ 0.01 µM | ≤ 0.01 µM |
| C=CC(=O)Nc1cccc(N2C(=O)N(c3ccc(OC)cc3)Cc3cnc(Nc4ccc(N5CCN(C)CC5)cc4OC)nc32)c1 [C-EGF25, N-(3-(7-(2-methoxy-4-(4-methylpiperazin-1-yl)phenylamino)-3-(4-methoxyphenyl)-2-oxo-3,4-dihydropyrimido[4,5-d]pyrimidin-1(2H)-yl)phenyl)acrylamide] | ≤ 0.01 µM | ≤ 0.01 µM | 0.501 µM | 54.6 µM | 1.23 µM | 0.198 µM | ≤ 0.01 µM | ≤ 0.01 µM | ≤ 0.01 µM |
| C=CC(=O)Nc1cccc(N2C(=O)N(C)Cc3cnc(Nc4ccccc4)nc32)c1 [C-EGF10, N-(3-(3-methyl-2-oxo-7-(phenylamino)-3,4-dihydropyrimido[4,5-d]pyrimidin-1(2H)-yl)phenyl)acrylamide] | 0.01 to 0.1 µM | 0.01 to 0.1 µM | 0.213 µM | > 100 µM | 1.58 µM | 0.028 µM | 0.01 to 0.1 µM | ≤ 0.01 µM | ≤ 0.01 µM |
| C=CC(=O)Nc1cccc(N2C(=O)N(C)Cc3cnc(NC)nc32)c1 [C-EGF21, N-(3-(3-methyl-7-(methylamino)-2-oxo-3,4-dihydropyrimido[4,5-d]pyrimidin-1 (2H)-yl)phenyl)acrylamide] | 0.1 to 1 µM | 1 to 10 µM | 22.5 µM | > 100 µM | > 100 µM | 11.9 µM | 0.1 to 1 µM | 0.1 to 1 µM | ≥ 10 µM |
| C=CC(=O)Nc1cccc(N2C(=O)N(C)Cc3cnc(Nc4ccc(N5CCN(C)CC5)cc4F)nc32)c1 [C-EGF18, N-(3-(7-(2-fluoro-4-(4-methylpiperazin-1-yl)phenylamino)-3-methyl-2-oxo-3,4-dihydropyrimido[4,5-d]pyrimidin-1(2H)-yl)phenyl)acrylamide] | 1 to 10 µM | ≥ 1 µM | > 100 µM | 4.85 µM | > 100 µM | > 100 µM | ≥ 10 µM | 1 to 10 µM | ≥ 10 µM |
| C=CC(=O)Nc1cccc(N2C(=O)N(C)Cc3cnc(Nc4ccc(N5CCN(C)CC5)cc4)nc32)c1 [x001, N-(3-(3-methyl-7-(4-(4-methylpiperazin-1-yl)phenylamino)-2-oxo-3,4-dihydropyrimido[4,5-d]pyrimidin-1(2H)-yl)phenyl)acrylamide] | ≤ 0.01 µM | ≤ 0.01 µM | 0.115 µM | > 100 µM | 3.97 µM | 0.029 µM | ≤ 0.01 µM | ≤ 0.01 µM | ≤ 0.01 µM |
| C=CC(=O)Nc1cccc(N2C(=O)N(C)Cc3cnc(Nc4ccc(N5CCCCC5)cc4OC)nc32)c1 [C-EGF11, N-(3-(7-(2-methoxy-4-(piperidin-1-yl)phenylamino)-3-methyl-2-oxo-3,4-dihydropyrimido[4,5-d]pyrimidin-1(2H)-yl)phenyl)acrylamide] | 0.01 to 0.1 µM | ≤ 0.01 µM | 2.56 µM | > 100 µM | 17.7 µM | 0.31 µM | 0.01 to 0.1 µM | 0.01 to 0.1 µM | 0.1 to 1 µM |
| C=CC(=O)Nc1cccc(N2C(=O)N(C)Cc3cnc(Nc4ccc(N5CCN(C)CC5)cc4OCC)nc32)c1 [Compound X009, N-(3-(7-(2-ethoxy-4-(4-methylpiperazin-1-yl)phenylamino)-3-methyl-2-oxo-3,4-dihydropyrimido[4,5-d]pyrimidin-1(2H)-yl)phenyl)acrylamide] | ≤ 0.01 µM | ≤ 0.01 µM | 0.71 µM | > 100 µM | > 5 µM | 0.003 µM | ≤ 0.01 µM | ≤ 0.01 µM | 0.01 to 0.1 µM |
| C=CC(=O)Nc1cccc(N2C(=O)N(C)Cc3cnc(Nc4ccc(N5CCC(N(C)C)CC5)cc4)nc32)c1 [Compound X004, N-(3-(7-(4-(4-(dimethylamino)piperidin-1-yl)phenylamino)-3-methyl-2-oxo-3,4-dihydropyrimido[4,5-d]pyrimidin-1(2H)-yl)phenyl)acrylamide] | ≤ 0.01 µM | ≤ 0.01 µM | 0.261 µM | > 100 µM | > 100 µM | 0.181 µM | ≤ 0.01 µM | ≤ 0.01 µM | ≤ 0.01 µM |
| C=CC(=O)Nc1cccc(N2C(=O)N(C)Cc3cnc(Nc4ccc(OCCOC)cc4OC)nc32)c1 [C-EGF22, N-(3-(7-(2-methoxy-4-(2-methoxyethoxy)phenylamino)-3-methyl-2-oxo-3,4-dihydropyrimido[4,5-d]pyrimidin-1(2H)-yl)phenyl)acrylamide] | 0.01 to 0.1 µM | ≤ 0.01 µM | 1.07 µM | > 100 µM | 24.9 µM | 0.495 µM | ≤ 0.01 µM | ≤ 0.01 µM | 0.01 to 0.1 µM |
| C=CC(=O)Nc1cccc(N2C(=O)N(C)Cc3cnc(Nc4ccc(N5CCSCC5)cc4)nc32)c1 [Compound X005, N-(3-(3-methyl-2-oxo-7-(4-thiomorpholinophenylamino)-3,4-dihydropyrimido[4,5-d]pyrimidin-1(2H)-yl)phenyl)acrylamide] | ≤ 0.01 µM | ≤ 0.01 µM | 0.333 µM | > 100 µM | 16.2 µM | 0.023 µM | ≤ 0.01 µM | ≤ 0.01 µM | ≤ 0.01 µM |
| C=CC(=O)Nc1cccc(N2C(=O)N(C)Cc3cnc(Nc4ccc(N5CCC(N(C)C)CC5)cc4OC)nc32)c1 [C-EGF13, N-(3-(7-(4-(4-(dimethylamino)piperidin-1-yl)-2-methoxyphenylamino)-3-methyl-2-oxo-3,4-dihydropyrimido[4,5-d]pyrimidin-1(2H)-yl)phenyl)acrylamide] | ≤ 0.01 µM | ≤ 0.01 µM | 0.568 µM | > 100 µM | > 100 µM | 0.198 µM | ≤ 0.01 µM | ≤ 0.01 µM | ≤ 0.01 µM |
| C=CC(=O)Nc1cccc(N2C(=O)N(C)Cc3cnc(Nc4ccc(N5CCC(N6CCN(C)CC6)CC5)cc4)nc32)c1 [Compound X003, N-(3-(3-methyl-7-(4-(4-(4-methylpiperazin-1-yl)piperidin-1-yl)phenylamino)-2-oxo-3,4-dihydropyrimido[4,5-d]pyrimidin-1(2H)-yl)phenyl)acrylamide] | ≤ 0.01 µM | ≤ 0.01 µM | 0.179 µM | > 100 µM | 3.44 µM | 0.125 µM | ≤ 0.01 µM | ≤ 0.01 µM | ≤ 0.01 µM |
| C=CC(=O)Nc1cccc(N2C(=O)N(C)Cc3cnc(Nc4ccc(N5CCSCC5)cc4OC)nc32)c1 [C-EGF09, N-(3-(7-(2-methoxy-4-thiomorpholinophenylamino)-3-methyl-2-oxo-3,4-dihydropyrimido[4,5-d]pyrimidin-1(2H)-yl)phenyl)acrylamide] | 0.01 to 0.1 µM | ≤ 0.01 µM | 0.379 µM | > 100 µM | 10.7 µM | 0.212 µM | 0.01 to 0.1 µM | 0.01 to 0.1 µM | 0.01 to 0.1 µM |
